Laboratory results published in patent publication US20240270749A1, “1,2,4-TRIAZOLO[1,5-A]PYRIMIDINE-BASED SLC16A3 INHIBITORS AND THEIR THERAPEUTIC USE” (CEMM - FORSCHUNGSZENTRUM FÜR MOLEKULARE MEDIZIN GMBH, priority 2021, published 2024).
pIC50: −log10 of the molar value. Entries after “also recorded” stand apart in the source; their conditions may differ.

What was measured:
Assay type in all cases: cell-based
[1] = test system: HAP1 dependent on SLC16A7; test: Viability of HAP1 cells dependent on SLC16A7; settings: SLC16A7 overexpressed in HAP1 SLC16A3^−/−, SLC16A1 knocked out
Text: To test this, the inventors overexpressed SLC16A7 or SLC16A8 in HAP1 SLC16A3^−/− cells and knocked out SLC16A1 using CRISPR/Cas9. […]

HAP1 SLC16A3^−/− cells = test: Synthetic lethality guided viability screening (CellTiter Glo), HAP1 SLC16A3-/- cells (SLC16A1-dependent); settings: for pIC50: Homo sapiens, HAP1, 72 hours, Cell titer glo, from dose response curves, read-out: HAP1 SLC16A31^−/− IC50
Experimental: (§1) Compounds were printed to individual wells of 384 well plates (Corning) with Echo acoustic liquid dispenser (Labcyte). HAP1 cells were seeded using a dispenser (Thermo Fischer Scientific) in density 1,000 cells per well in 50 μl. As controls, DMSO or Bortezomib treatments were used. Viability of cells was assessed after 72 hours with CellTiter Glo (Promega) and % of controls were calculated based on RLU values in DMSO (100%) and Bortezomib (0%) wells. First screening was performed in 10 μM final concentration. Second screening was performed in technical duplicates, in 4 point dose response setting, with concentrations ranging from 13-0.5 μM. Third screening was performed in technical triplicates in 6 point dose response setting, with concentrations ranging from 27-0.11 μM. LAMA84 cells were used in density 3,000 cells per well. AZD3965, BAY-8002, syrosingopine and compounds obtained from third party vendors were tested in 96 well plates, with 2,500 cells per well with manual seeding and treatment. Compound efficacy was determined either by comparing % of control, or by IC50 estimation based on dose response curves (calculated with R package drc, or with GraphPad Prism).
(§2) Table 1: Results of synthetic lethality guided chemical screening assay. HAP1 WT, HAP1 SLC16A1^−/− or HAP1 SLC16A3^−/− cell lines were treated with presented compounds for 72 hours and viability was determined by Cell titer glo assay (Promega). Data are presented either as a percentage of viability in HAP1 SLC16A1^−/− cells compared to controls (DMSO=100% and Bortezomib=0%) upon single dose treatment (10 μM) or as IC50 values obtained from dose response curves.

HAP1 SLC16A1^−/− cells [2] = test: Synthetic lethality guided viability screening (CellTiter Glo), HAP1 SLC16A1-/- cells (SLC16A3-dependent); settings: Homo sapiens, HAP1; 72 hours, Cell titer glo, from dose response curves
Experimental: as §1, §2

HAP1 WT cells = test: Synthetic lethality guided viability screening (CellTiter Glo), HAP1 WT cells; settings: Homo sapiens, 72 hours, Cell titer glo, from dose response curves
Experimental: as §1, §2

NCIH441 cells = test: Lactate Glo lactate accumulation, NCIH441 lung cancer cells; settings: 10 μM, 6 hours
Experimental: (§3) Protocol for lactate glo was modified based on Benjamin D et al., Cell Reports, 2018, 25(11):3047-3058.e4. Cells were seeded in 96 well plate in density 30,000 cells per well. Next day cells were treated with tested compounds, AZD3965 and syrosingopine (all in final concentration of 10 μM) or DMSO. After 6 hours of incubation at 37° C., cells were washed twice with PBS, lysed with 0.2N HCl, neutralized with 1M Tris-base (Sigma) and incubated for 1 hour at RT with lactate glo reagents (Promega). Lactate accumulation was then estimated based on luminescence signal.

NCIH358 cells = test: Lactate Glo lactate accumulation, NCIH358 lung cancer cells; settings: 10 μM, 6 hours
Experimental: as §3

HAP1 SLC16A1^−/− cells [3] = test: Growth curve, HAP1 SLC16A1-/- cells; settings: different concentrations; counted 24 h, 48 h, 72 h
Experimental: Cells were seeded in 6 well plate in density of 15,000 cells per well in the presence of different concentrations of tested compounds in DMSO, or matching DMSO concentrations. Cells were washed with PBS, harvested with trypsin and counted with CASY counter (Roche) 24 h, 48 h and 72 h after the seeding. Cell number obtained at 24 h was set as 0, for each time point and concentration two wells were harvested and counted.

| SMILES | killing of HAP1 cells dependent on SLC16A7 (in words) [1] | effect on viability of HAP1 SLC16A3^−/− cells (in words) (HAP1 SLC16A3^−/− cells) | pIC50 (HAP1 SLC16A1^−/− cells [2]) | pIC50 (HAP1 SLC16A3^−/− cells) | pIC50 (HAP1 WT cells) | lactate accumulation in NCIH441 cells (NCIH441 cells) | lactate accumulation in NCIH358 cells (NCIH358 cells) | growth rate / proliferation of HAP1 SLC16A1^−/− cells (HAP1 SLC16A1^−/− cells [3]) |
| --- | --- | --- | --- | --- | --- | --- | --- | --- |
| Cc1[nH]nc(C(F)(F)F)c1Cc1sc2c(c1C(=O)N1C[C@](C)(O)CO1)c(=O)n(C)c(=O)n2C(C)C [AZD3965, reference compound] | can be killed | reduced viability | – | – | – | – | – | – |
| O=C(Nc1ccccc1C(=O)O)c1cc(S(=O)(=O)c2ccccc2)ccc1Cl [BAY-8002, reference compound] | can be killed | reduced viability | – | – | – | – | – | – |
| Cc1ccc(NC(=O)CCc2c(C)nc3nc(C(F)(F)F)nn3c2C)cc1 [Compound 1] | – | – | 5.48 | < 4.52 | < 4.52 | – | – | – |
| Cc1cc(C)cc(NC(=O)CCc2c(C)nc3nc(C(F)(F)F)nn3c2C)c1 [Compound 2] | – | – | 5.38 | < 4.52 | < 4.52 | – | – | – |
| CSc1nc2nc(C)c(CCC(=O)Nc3ccc(C)cc3)c(C)n2n1 [Compound 3] | – | – | 5.63 | < 4.52 | < 4.52 | – | – | – |
| CSc1nc2nc(C)c(CCC(=O)Nc3cc(C)cc(C)c3)c(C)n2n1 [Compound 4] | – | – | 5.74 | < 4.52 | < 4.52 | – | – | – |
| Cc1cc(NC(=O)CCc2c(C)nc3nc(C(F)(F)F)nn3c2C)ccc1N1CCN(C)CC1 [Compound 5] | – | – | 5.23 | < 4.52 | < 4.52 | – | – | – |
| Cc1nc2nc(C(F)(F)F)nn2c(C)c1CCC(=O)Nc1ccc(S(=O)(=O)N2CCCC2)cc1 [Compound 6] | – | – | 6.39 | < 4.52 | < 4.52 | – | – | – |
| Cc1nc2nc(C(F)(F)F)nn2c(C)c1CCC(=O)Nc1ccncc1 [Compound 7] | – | – | 4.95 | < 4.52 | < 4.52 | – | – | – |
| Cc1nc2nc(C(F)(F)F)nn2c(C)c1CCC(=O)Nc1cnc2ccccc2c1 [Compound 8] | – | – | 6.60 | < 4.52 | < 4.52 | confirmed the lactate accumulation in both cell lines | confirmed the lactate accumulation in both cell lines | confirmed the growth reducing effect; also recorded: slowed down the proliferation in a dose-dependent manner |
| Cc1nc2ncnn2c(C)c1CCC(=O)Nc1ccc(S(=O)(=O)N2CCCCCC2)cc1 [Compound 9] | – | – | 5.70 | < 4.52 | < 4.52 | – | – | – |
